Measurements reported in PubChem BioAssay AID1996.
Values after ≈ are worked out from the molar mass of the structure shown.

Conditions: buffer; pH 7.4; 200.0 µM

First: O=C1NC2(CCCCCC2)C(=O)N1Cc1c(F)cccc1Cl
Second: Nc1nc(COc2ccc(F)cc2Cl)nc(N2CCCCC2)n1
The solubility kinetic of the first is 2.8-fold higher: 9.6 µg/mL (≈ 29.6 µM) for the first, 3.4 µg/mL (≈ 10.1 µM) for the second.

Going from `NC(=O)c1ccc(NC(=O)CN2CCOCC2)cc1` to `O=C(CN1CCC(NC(=O)Nc2ccccc2)CC1)Nc1ccccc1F`, the solubility kinetic falls from 35.6 µg/mL (≈ 135 µM) to 17.5 µg/mL (≈ 47.2 µM) (2-fold).

`O=C(NCCc1ccccc1)C1(c2ccccc2)CCCC1` and `O=C(O)C1(c2ccccc2)CCC(Nc2ccccc2)C1` (stereo not given) are within 1.5-fold of each other in solubility kinetic: 28.9 µg/mL (≈ 98.5 µM) for the first, 39.7 µg/mL (≈ 141 µM) for the second.

First: O=C(Cn1cnc2c(oc3ccccc32)c1=O)N1CCCC1
Second: O=C(NCc1ccccc1)c1ccc(Cl)c(S(=O)(=O)N2CCCC2)c1
The solubility kinetic of the first is higher: > 44.6 µg/mL for the first, 33.9 µg/mL (≈ 89.5 µM) for the second.

`Cc1onc(-c2c(F)cccc2Cl)c1C(=O)OCC(=O)N1C(C)CCCC1C` (stereo not given) and `Cc1ccc(C(=O)COC(=O)c2nc(Cl)ccc2Cl)cc1` are within 1.5-fold of each other in solubility kinetic: 41.7 µg/mL (≈ 102 µM) for the first, 48.4 µg/mL (≈ 149 µM) for the second.

`CCOc1ccccc1C(=O)NC(C(=O)Nc1cccnc1)C(C)C` (stereo not given) and `CCOC(=O)C(=O)Nc1ccc(OCc2ccccc2)cc1` are within 1.5-fold of each other in solubility kinetic: 33.7 µg/mL (≈ 98.7 µM) for the first, 30.2 µg/mL (≈ 101 µM) for the second.

`CC12CN3CC(C)(CN(C1)C3c1ccccc1)C2O` (stereo not given) and `Br.c1ccc(NC2=NCCCS2)cc1` cannot be ordered by solubility kinetic: > 38.8 µg/mL for the first, > 41 µg/mL for the second.

`Cc1cnc(C(=O)OCC(=O)Nc2cccc3ccccc23)cn1` and `Cc1cnc(C(=O)OCC(=O)Nc2ccc(Cl)cn2)cn1` cannot be ordered by solubility kinetic: > 48.2 µg/mL for the first, > 46 µg/mL for the second.

`O=C(Nc1ccccc1C(=O)N1CCCCCC1)c1ccccc1` and `O=C(COC(=O)C1CCC1)NC(=O)c1ccccc1` cannot be ordered by solubility kinetic: > 48.4 µg/mL for the first, > 39.2 µg/mL for the second.

`COc1ccc(C(=O)NC(=S)NC2CCCCC2)cc1` and `O=C(NCC1CCCCC1)c1ccc([N+](=O)[O-])cc1` are within 1.5-fold of each other in solubility kinetic: 4.8 µg/mL (≈ 16.4 µM) for the first, 5.1 µg/mL (≈ 19.4 µM) for the second.

First: O=C(COc1ccccc1F)NCCc1ccc2c(c1)OCCO2
Second: O=C(COC(=O)C1=COCCO1)NCc1ccc(F)cc1
The solubility kinetic of the first is higher: > 49.7 µg/mL for the first, 40.3 µg/mL (≈ 136 µM) for the second.

`CCOc1ccc(NC(=O)CN(C)S(=O)(=O)c2cnc[nH]2)cc1` and `CCN(CC(=O)NCc1ccco1)S(=O)(=O)c1ccc(OC)cc1` cannot be ordered by solubility kinetic: > 50.8 µg/mL for the first, > 52.9 µg/mL for the second.

First: CN(C(=O)C(Cl)Cl)c1ccc(OC(=O)c2ccco2)cc1
Second: O=C(Nc1ccc(Cl)c(Cl)c1)c1ccco1
The solubility kinetic of the first is higher: > 49.2 µg/mL for the first, 8.5 µg/mL (≈ 33.2 µM) for the second.

`CC(C)c1cc(=O)[nH]c(SCC(=O)NC2CCCC2)n1` and `Cl.O=S1(=O)CCC(NC2CCCC2)C1` (stereo not given) cannot be ordered by solubility kinetic: > 44.3 µg/mL for the first, > 36 µg/mL for the second.

`CNCC(=O)Nc1ccc(OC(F)(F)F)cc1.Cl` and `CC(=O)Nc1ccc(CC#N)cc1` cannot be ordered by solubility kinetic: 41.4 µg/mL for the first, > 26.1 µg/mL for the second.

Going from `O=C1CSC(=Nc2ccc(F)cc2)N1` to `COc1ccc(-c2nc3ccccc3c(=O)[nH]2)cc1`, the solubility kinetic falls from > 31.5 µg/mL to 2.2 µg/mL (≈ 8.72 µM).

Going from `Cl.c1ccc2c(c1)nc1n2CCN1CCN1CCCC1` to `CCN1CCN(c2nc(-c3ccccc3)c3ccccc3n2)CC1`, the solubility kinetic falls from > 49.4 µg/mL to 46.1 µg/mL (≈ 145 µM).

Going from `CN(Cc1ccccc1)/C(=N/O)c1cccc(Cl)c1` to `COc1ccc2c(c1)-c1nc(/N=C/c3ccccc3O)sc1CC2`, the solubility kinetic rises from 26.4 µg/mL (≈ 96.1 µM) to 44.5 µg/mL (≈ 132 µM) (1.7-fold).

`O=C(O)Cc1sc(NCc2ccco2)nc1-c1ccccc1` and `CSc1nsc(SCC(=O)NCc2ccccc2)n1` are within 1.5-fold of each other in solubility kinetic: 46.8 µg/mL (≈ 149 µM) for the first, 46.7 µg/mL (≈ 150 µM) for the second.

`CC1(C)CC2CC(C)(CN2/C=C2/CCCCC2=O)C1` (stereo not given) and `CSc1sc(C(=O)N2CCCCC2)c(-c2cccs2)c1C#N` are within 1.5-fold of each other in solubility kinetic: 22.6 µg/mL (≈ 86.5 µM) for the first, 31.6 µg/mL (≈ 90.7 µM) for the second.

`COc1ccccc1C(=O)COC(=O)COc1ccc(C#N)cc1` and `N#Cc1ccc(C(=O)OCC(=O)Nc2cccc(S(=O)(=O)NC3=NCCC3)c2)cc1` cannot be ordered by solubility kinetic: > 48.8 µg/mL for the first, > 64 µg/mL for the second.

First: Cc1cc(NCc2cccnc2)nc(N)n1
Second: COc1ccc(OC)c(Nc2nc(N)nc(CCl)n2)c1
The solubility kinetic of the first is higher: > 32.3 µg/mL for the first, 22.4 µg/mL (≈ 75.7 µM) for the second.

Compared with `Fc1ccc(NC(=S)N2CCN(c3ccccn3)CC2)cc1Cl`, `O=C(Nc1ccc2c(c1)C(=O)OC2)c1ccc(Cl)cc1Cl` is higher in solubility kinetic: < 0.2 µg/mL for the first, 3 µg/mL (≈ 9.31 µM) for the second.

First: COc1ccccc1C(c1c(N)n(C)c(=O)n(C)c1=O)C(C)[N+](=O)[O-] (stereo not given)
Second: COc1ccccc1-n1ccnc1SCC(=O)NC(C)(C)C
The solubility kinetic of the first is higher: > 52.3 µg/mL for the first, 43.9 µg/mL (≈ 137 µM) for the second.

Going from `O=C(CCc1c[nH]c2ccccc12)OCc1cccc(C(F)(F)F)c1` to `O=C(CCCOc1ccccc1)NC(=S)Nc1ccccc1`, the solubility kinetic rises from 1 µg/mL (≈ 2.88 µM) to 1.8 µg/mL (≈ 5.73 µM) (1.8-fold).

Compared with `Cc1nc(SCC(=O)N2CC(=O)Nc3ccccc32)nc(C)c1C`, `CCn1cc(C(=O)OC)c(=O)c2ccc(C)nc21` is 3.4-fold higher in solubility kinetic: 10.8 µg/mL (≈ 31.5 µM) for the first, 36.4 µg/mL (≈ 148 µM) for the second.

First: CC1CC1C(=O)OCC(=O)Nc1cccc(F)c1 (stereo not given)
Second: COc1ccc(C(=O)CC(=O)C(=O)Nc2cccc(C(C)=O)c2)cc1
The solubility kinetic of the first is higher: > 37.7 µg/mL for the first, 13.9 µg/mL (≈ 41 µM) for the second.

`O=Cc1ccc(C(=O)OCC(=O)NC(=O)Nc2ccccc2F)cc1` and `COc1ccc(CCC(C)NCc2cccc(Br)c2)cc1` (stereo not given) are within 1.5-fold of each other in solubility kinetic: 28.9 µg/mL (≈ 83.9 µM) for the first, 34.1 µg/mL (≈ 97.9 µM) for the second.

Going from `Cc1ccc2oc(C(=O)NCc3ncc(C)[nH]3)c(C)c2c1` to `Cc1cc(C)c(S(=O)(=O)NCC(=O)NCc2ccccn2)c(C)c1`, the solubility kinetic rises from 38.7 µg/mL (≈ 137 µM) to > 52.1 µg/mL.

Compared with `Cn1ccnc1Sc1ccccc1[N+](=O)[O-]`, `Cc1ccc(OCCN2C(=O)C(=O)c3cccc(C)c32)cc1` is lower in solubility kinetic: 24.1 µg/mL (≈ 102 µM) for the first, < 0.6 µg/mL for the second.
